Results on one compound are retold here after patent publication US12478628B2, “Germ cell nuclear factor ligands and methods of use thereof” (Saint Louis University, priority 2020, dated 2025).

In general, ΔTm refers to the change in melting temperature against a reference sample.

The experiment deals with T1, GCNF LBD (Homo sapiens, UniProt Q15406).
T1 construct: Human GCNF (NR6A1) LBD (residues 248-480); made in house; host or cells: E. coli BL(21) DE3
T1 sequence (Q15406 248-480): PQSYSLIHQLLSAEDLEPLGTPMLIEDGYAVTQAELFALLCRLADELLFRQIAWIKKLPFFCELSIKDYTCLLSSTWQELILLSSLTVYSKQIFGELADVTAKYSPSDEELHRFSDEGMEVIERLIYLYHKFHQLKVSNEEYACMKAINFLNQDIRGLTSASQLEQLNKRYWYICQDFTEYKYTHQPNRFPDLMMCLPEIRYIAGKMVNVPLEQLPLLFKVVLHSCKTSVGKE
As to the kind of experiment: Differential scanning fluorimetry (DSF) of GCNF LBD. Format: binding. As to conditions: 20 μM ligand; GCNF LBD Tm 41.9±0.6° C.; significance cutoff 2° C.; read-out: increase of melting temperature (ΔTm) of GCNF LBD. As to the method:
DSF Assay. GCNF LBD (5 μM) were mixed with 1× Sypro orange (Invitrogen) in DSF buffer (50 mM HEPES, 50 mM KCl, 5 mM TCEP, 0.5 mM EDTA, pH 7.5). Test compounds was added at 1:1 molar equivalence as protein or replaced with DMSO control. Ten microliters (10 μL)×5 replicates for each sample were plated on 384-well PCR microplate. No protein control and no ligand references were also run simultaneously in 5 replicates on the same plate. A total of 450 compounds (Life Chemicals) previously selected from a nuclear-receptor-biased library targeting REV-ERB were analyzed. Thermal stability was assessed on a Quantstudio 6 instrument (Biosystems) by ramping the temperature from 25° C. to 95° C. at 0.05° C./s and protein melt shifts were subsequently quantified by Boltzmann-derived melting temperature (Tm) using the Protein Thermal Shift (ThermoFisher) software. Positive hits were identified when a thermal shift (ΔTm) of at least 2° C. was observed.
For the DSF ligand titration assay, ligands 30, 34 and 80 were titrated against 5 μM GCNF LBD with a ligand concentration series of 30, 20, 13, 9, 6, 4, 2.6, 1.7 and 0 μM from a 20 mM DMSO stock solution. DSF assay and analysis was then performed as described above. All DSF data were reported as mean±SEM.
In general terms: In DSF a fluorescence change marks the thermal transition of the protein.

In the case of `O=C(Cn1cc(S(=O)(=O)c2ccccc2)c2ccccc21)N1CCc2ccccc21` [Ligand 80, 2-[3-(benzenesulfonyl)-1H-indol-1-yl]-1-(2,3-dihydro-1H-indol-1-yl)ethan-1-one], the ΔTm at 20 µM was more than 2 °C.
